Measured values taken from the Bradley open melting point set (2014).
Values joined by “and” are separate entries in the source; they are usually repeats but may differ in a detail not shown here. Equal entries are not always repeated.

For `O=[N+]([O-])c1cc(Cl)[n+]([O-])c(Cl)c1` [2,6-dichloro-4-nitropyridine n-oxide], the melting point was 178 °C. In the case of `CCCCCCCCCCCCC` [Tridecane], the melting point is reported as -5 °C. Work on `Oc1ccccc1` [phenol] yielded a melting point of 41 °C. `CC(=O)Nc1nnc(S(N)(=O)=O)s1` [Acetazolamide] gave a melting point of 260 °C. In the case of `Cc1cc(CCN2CCN(c3cccc(Cl)c3)CC2)n[nH]1` [mepiprazole], the melting point is reported as 106 °C. With `O=C(O)c1cc[n+]([O-])cc1` [isonicotinic acid n-oxide] the melting point was 270 °C. In the case of `N#CCCCCC#N` [1,4-dicyanobutane], the melting point is reported as 2 °C. Compound `Clc1ccc(NC(/N)=NC(N)=NC(C)C)cc1` [Proguanil] has a melting point of 129 °C. Compound `O=[N+]([O-])c1ccc(-c2nnc3sc(/C=C/c4ccccc4)nn23)cc1` has a melting point of 113 °C. `O=CC(=Cc1ccco1)c1ccccc1` [3-(2-furyl)-2-phenylpropenal] showed a melting point of 59 °C. With `N#CC(=Cc1ccc(Cl)cc1)C(N)=O` [3-(4-chlorophenyl)-2-cyanoacrylamide] the melting point was 101 °C. Compound `O=[N+]([O-])c1ccccc1O` [o-nitrophenol] has a melting point of 45 °C. In the case of `Cc1ccc2[nH]cnc2c1` [5-methylbenzimidazole], the melting point is reported as 115 °C. In the case of `COC(CC(C)=O)OC` [acetylacetaldehyde dimethyl acetal], the melting point is reported as -83 °C. Work on `OC(CCN1CCCCC1)(c1ccccc1)c1ccccc1` [pridinol] yielded a melting point of 120 °C. Compound `N#CC1(c2ccccc2)C=Cc2ccccc21` (configuration not stated) [1-phenyl-1H-indene-1-carbonitrile] has a melting point of 77 °C. `CC(=O)Cl` [acetyl_chloride] showed a melting point of -112 °C. Compound `CCC[C@H]1CCC[C@@H]1C` (relative stereo) [trans-1-methyl-2-propylcyclopentane] has a melting point of -123 °C. In the case of `C/C=C/C(=O)O` [trans-crotonic acid], the melting point is reported as 72 °C. In the case of `CN1CCC(CN2c3ccccc3Sc3ccccc32)C1` (configuration not stated) [methdilazine], the melting point is reported as 87 °C. Compound `O=[N+]([O-])c1ccc(Br)cc1` [1-bromo-4-nitrobenzene] has a melting point of 126 °C. For `Cc1ccc(NC(=S)NN)c(C)c1` [4-(2,4-dimethylphenyl)-3-thiosemicarbazide], the melting point was 151 °C. With `C[C@H]1CCCC[C@@H]1C` (relative stereo) [trans-1,2-dimethylcyclohexane] the melting point was -88 °C. Work on `CN(CCO)CCO` [N-methyldiethanolamine] yielded a melting point of -21 °C. In the case of `CCc1cccc(C)c1N(C(=O)CCl)C(C)COC` (configuration not stated) [metolachlor], the melting point is reported as 25 °C. `O=C(O)C(Cl)(Cl)Cl` [Trichloroacetic acid] showed a melting point of 57 °C. `CCCCCCCCCCCCCCCCCC` [N-octadecane] gave a melting point of 28 °C. Compound `CCCCP(=O)(CCCC)CCCC` [tri-n-butylphosphine oxide] has a melting point of 67 °C. `O=C(O)C(Sc1ccccc1)c1ccccc1` (stereo not drawn) [alpha-(phenylthio)phenylacetic acid] showed a melting point of 100 °C. For `O=C1CSc2ccccc2N1` [(2h)1,4-benzothiazin-3(4h)-one], the melting point was 177 °C. `CCCCCCCCCCCCCCCCCC(=O)O[C@H]1[C@H](O[C@@H]2[C@@H](C)[C@H](O[C@H]3C[C@@](C)(OC)[C@@H](O)[C@H](C)O3)[C@@H](C)C(=O)O[C@H](CC)[C@@](C)(O)[C@H](O)[C@@H](C)C(=O)[C@H](C)C[C@@]2(C)O)O[C@H](C)C[C@@H]1N(C)C` gave a melting point of 102 °C. `Nc1ccccc1` [Aniline] gave a melting point of -6 °C. Compound `COc1ccc2c(c1)=NC(c1ccccc1)C=2c1ccccc1` (configuration not stated) [6-methoxy-2,3-diphenyl-1H-indole] has a melting point of 212 °C. In the case of `OCC=Cc1ccccc1` [cinnamyl_alcohol], the melting point is reported as 34 °C. For `O=c1[nH]cc(C(F)(F)F)c(=O)[nH]1` [5-(trifluoromethyl)uracil], the melting point was 253 °C. Compound `Nc1cc(C(=O)O)ccc1Cl` [3-amino-4-chlorobenzoic acid] has a melting point of 216 °C. For `COC(=O)[C@H](C)O` [methyl (S)-lactate], the melting point was -44 °C. For `Cc1ccccc1CO` [2-methylbenzyl alcohol], the melting point was 35 °C. `FC(F)(F)C(F)(F)C(F)(F)C(F)(F)C(F)(F)C(F)(F)F` [perfluorohexanes] gave a melting point of -90 °C. In the case of `C#CC1(O)CC[C@H]2[C@@H]3CCc4cc(O)ccc4[C@H]3CC[C@@]21C` (stereo in doubt) [(17beta)-17-Ethynylestra-1(10),2,4-triene-3,17-diol], the melting point is reported as 144 °C. `O=C1CN(C(=O)OCc2ccccc2)CCN1` [4-benzyloxycarbonyl-2-piperazinone] showed a melting point of 120 °C. In the case of `C#CCCCCCCCCCCCCC` [1-pentadecyne], the melting point is reported as 10 °C. Compound `CN[C@@H](C)[C@H](O)c1ccccc1` [(1R,2S)-2-(Methylamino)-1-phenylpropan-1-ol] has a melting point of 36 °C. With `CS(C)=O` [Dimethyl sulfoxide] the melting point was 18.4 °C and 18.5 °C. Compound `NC(CCC(=O)O)C(=O)O` (stereo in doubt) [D-Glutamic Acid] has a melting point of 201 °C. For `COC(=O)c1ccc(/C=C\c2ccc(C(=O)OC)cc2)cc1` [dimethyl cis-stilbene-4,4'-dicarboxylate], the melting point was 113 °C. Work on `CC(C)(C)c1ccc(C(=O)O)cc1` [4-tert-butylbenzoic acid] yielded a melting point of 166 °C. `C[C@@H]1CN[C@@H](C)CN1` [trans-2,5-dimethylpiperazine] showed a melting point of 117 °C. Work on `CC(C)(C)OC(=O)N1CCS[C@@H]1C(=O)O` [(R)-3-boc-thiazolidine-2-carboxylic acid] yielded a melting point of 92 °C. Compound `CC(C)(C)CS` [2,2-dimethyl-1-propanethiol] has a melting point of -67 °C. Compound `O=S(F)F` [Thionyl difluoride] has a melting point of -110 °C. `BBBBBBBBBB` [decaborane] showed a melting point of 101 °C. `COc1ccc(C(=O)Cl)cc1` [4-Methoxybenzoyl chloride] showed a melting point of 22 °C. `Cc1ccc(/C=C(\C(N)=O)c2nc3ccccc3s2)cc1` gave a melting point of 149 °C. `Oc1cc(C(F)(F)F)nc2ccc(Cl)cc12` [6-chloro-4-hydroxy-2-(trifluoromethyl)quinoline] gave a melting point of 279 °C. `C[C@]12CC[C@H]3[C@@H](CCC4=CC(=O)CC[C@@]43C)[C@@H]1CC[C@@H]2O` [Testosterone] showed a melting point of 154 °C. Work on `ClCC(Cl)CCl` [1,2,3-trichloropropane] yielded a melting point of -14 °C. `Cc1ncc2n1-c1ccc(Cl)cc1C(c1ccccc1F)=NC2` [Midazolam] showed a melting point of 159 °C. `O=C(OC(=O)C(F)(F)F)C(F)(F)F` [Trifluoroacetic anhydride] gave a melting point of -63 °C. For `CC(C)CN` [isobutylamine], the melting point was -85 °C. `Clc1ccc(Cl)cc1` [p-dichlorobenzene] gave a melting point of 53 °C. `O=C(c1c(F)c(F)c(F)c(F)c1F)c1c(F)c(F)c(F)c(F)c1F` [decafluorobenzophenone] showed a melting point of 93 °C. In the case of `COCC(=O)N(c1c(C)cccc1C)C(C)C(=O)OC` (configuration not stated) [Metalaxyl], the melting point is reported as 72 °C. In the case of `O=C1[C@@H]2[C@H](C(=O)N1O)[C@@H]1C=C[C@H]2C1` [endo-n-hydroxy-5-norbornene-2,3-dicarboximide], the melting point is reported as 168 °C. `O=C(O)c1cc(B(O)O)ccc1F` [3-carboxy-4-fluorobenzeneboronic acid] showed a melting point of 218 °C. In the case of `Nc1ccc(F)c(Cl)c1` [3-chloro-4-fluoroaniline], the melting point is reported as 46 °C. For `CCCCCCCCCC(=O)O` [decanoic acid], the melting point was 31 °C. Work on `O=C(O)c1ccc(C(=O)O)c(Br)c1` [2-bromoterephthalic acid] yielded a melting point of 299 °C. In the case of `CSc1[nH]nc(N)c1C#N` [3-amino-5-methylthio-1h-pyrazole-4-carbonitrile], the melting point is reported as 149 °C. `O=C[C@@H](O)[C@@H](O)[C@@H](O)[C@H](O)CO` [alpha-D-talose] gave a melting point of 134 °C. In the case of `CCc1nc(N)nc(Cl)c1C` [4-chloro-6-ethyl-5-methylpyrimidin-2-amine], the melting point is reported as 139 °C. In the case of `CCOC(=O)CCl` [ethyl chloroacetate], the melting point is reported as -26 °C. `CC(=O)O` [Acetic acid] showed a melting point of 16.7 °C. With `O=C(O)c1cccc([N+](=O)[O-])c1C(=O)O` [3-nitrophthalic acid] the melting point was 212 °C. For `c1ccc(CCc2ccccc2)cc1` [Bibenzyl], the melting point was 52 °C. `C[C@H](CCC(=O)O)[C@H]1CC[C@H]2[C@@H]3[C@H](O)C[C@@H]4C[C@H](O)CC[C@]4(C)[C@H]3C[C@H](O)[C@]12C` [cholic acid] showed a melting point of 201 °C. `OCC(O)C(O)C(O)C(O)CO` (configuration not stated) [Mannitol] showed a melting point of 168 °C. `CC(C)(C)[SiH](Cl)C(C)(C)C` [Di-tert-butyl(chloro)silane] gave a melting point of 39 °C. Work on `CCCCCCCc1ccc(-c2ccc(C#N)cc2)cc1` [4-cyano-4'-n-heptylbiphenyl] yielded a melting point of 31 °C. In the case of `Clc1c(Cl)c(Cl)c(Cl)c(Cl)c1Cl` [hexachlorobenzene], the melting point is reported as 230 °C and 229 °C. Work on `CCC1(CCC(C)C)C(=O)NC(=O)NC1=O` [Inmetal] yielded a melting point of 156 °C. `O=C(O)/C(=C/c1ccccc1)c1ccccc1` [alpha-phenylcinnamic acid] showed a melting point of 173 °C. Work on `COC(=O)c1cccc(N)c1` [methyl 3-aminobenzoate] yielded a melting point of 51 °C. Work on `COC(=O)c1ccc(I)c([N+](=O)[O-])c1` [methyl 4-iodo-3-nitrobenzoate] yielded a melting point of 103 °C. For `O=C(N[C@@H](CO)C(=O)O)OCc1ccccc1` [N-benzyloxycarbonyl-l-serine], the melting point was 119 °C. In the case of `COc1ccc(C=O)cc1OC` [3,4-dimethoxybenzaldehyde], the melting point is reported as 44 °C. Work on `CCOc1ccc(B(O)O)cn1` [6-ethoxypyridine-3-boronic acid] yielded a melting point of 103 °C. Compound `c1ccc2c(c1)ccc1c3ccccc3ccc21` [Chrysene] has a melting point of 255 °C. For `N#CCc1ccc([N+](=O)[O-])cc1` [4-nitrophenylacetonitrile], the melting point was 116 °C. For `CC(C)Cc1ccc(C(C)C(=O)O)cc1` (configuration not stated) [Ibuprofen], the melting point was 76 °C. `COc1ccc(-c2csc(C(C#N)=Cc3cccs3)n2)cc1` showed a melting point of 141 °C. In the case of `O=C(O)C(O)c1ccccc1Cl` (configuration not stated) [2-chloromandelic acid], the melting point is reported as 83 °C. In the case of `Cc1ccc(C)c(-c2cc(C)ccc2C)c1` [2,2',5,5'-tetramethylbiphenyl], the melting point is reported as 50 °C. In the case of `C/C(=C(/C#N)c1nc2ccccc2s1)c1cc2ccccc2oc1=O`, the melting point is reported as 156 °C. Compound `CCCCCCC(=O)OCC` [ethyl heptanoate] has a melting point of -66 °C. Compound `CC12CCC3C(CCC4(C)CC5(CCC34C)OCCO5)C1CCC2=O` (configuration not stated) has a melting point of 159 °C. For `CNCCCC12CCC(c3ccccc31)c1ccccc12` [maprotiline], the melting point was 92 °C.
